From paper PMC3199867, “Targeting surface nucleolin with multivalent HB-19 and related Nucant pseudopeptides results in distinct inhibitory mechanisms depending on the malignant tumor cell type” (BMC Cancer, 2011) come the findings set out here.

For one assay, the system named is MDA-MB-435. The experiment in a line: Cell adhesion to plastic culture flask. Conditions: MDA-MB-435, 10 μM, adherent cells counted after 16 hours of culture. The class given is cell-based, human. An excerpt: (§1) A. Inhibition of Cell adhesion by N6. […] C. The effect of Nucant treatment on cell proliferation. […] The ordinates give the mean ± SD of triplicate samples. Statistical significance: **p < 0.01, ***p < 0.001.

The next assay deals with MDA-MB-231. The experiment in a line: Cell adhesion to plastic culture flask. The class given is cell-based, human. Conditions: MDA-MB-231, 10 μM, adherent cells counted after 16 hours of culture.
Text: as §1

Another assay relates to LNCaP. In words: Cell adhesion to plastic culture flask. The class given is cell-based, human. Conditions: 10 μM, adherent cells counted after 16 hours of culture.
Text: as §1

A further assay relates to T29 cells. In words: Internucleosomal DNA fragmentation (low molecular weight DNA of nucleoplasm, agarose gel). The class given is cell-based, murine. Conditions: T29 cells, 2.5, 5, 10, and 20 μM, 24 hours. An excerpt: Extraction of nuclei in buffer I (prepared as above) from viable cells results in the recovery of chromatin-free nucleoplasm. However, during cell death when DNA fragmentation occurs, the low molecular weight DNA fragments are recovered in the nucleoplasm. Consequently, supernatant of nuclear extracts from cells undergoing programmed cell death contain low molecular weight DNA fragments, whereas the pellet of the nuclear extracts contain the high molecular weight chromatin. By this experimental approach, DNA fragmentation could be analyzed without interference of the bulky DNA [51]. […] The DNA pellet was resuspended in electrophoresis buffer (10 mM Tris-HCI, pH 8.0, 1 mM EDTA) and analyzed by electrophoresis on 1.5% agarose gels containing […] ethydium bromide.
Figure 7 HB-19 and related multivalent Nucant pseudopeptides induce cell death associated with internucleosomal DNA fragmentation. […] Cell cultures (in triplicate) were monitored for viable cell number daily for 3 days. […] T29 cells seeded at 100,000/ml in 2 ml in the absence (0 μM) or presence of N7 at various concentrations 2.5, 5, 10 and 20 μM were cultured for 3 days and the number of viable cells was determined at day 1, 2, and 3 post-seeding. […] The nuclear extracts were analyzed by immunoblotting using anti-Nt Ab (Methods). […]

Regarding “Ac-Lys-Aib-Gly-Lys-Aib-Gly-Lys-Aib-Gly-Lys-Aib-Gly-Lys-Aib-Gly-Lys-Aib-Gly-CONH2 [Nucant N6, Presents hexavalently the pseudo-tripeptide Lysψ(CH2N)-Pro-Arg coupled to the polypeptide template containing Aib]”, the “degree of adhesion inhibition” value in the assay with MDA-MB-435 is listed as 41%; in the assay with MDA-MB-231, 58%; with LNCaP it was 66%. For the same substance, in the assay on T29 cells, the DNA fragmentation entry is “Internucleosomal DNA cleavage”.
